Laboratory results from US11447486B2, “2-amino-benzimidazole derivatives and their use as 5-lipoxygenase and/or prostaglandin E synthase inhibitors” (INSTITUT PASTEUR KOREA, priority 2014, dated 2022).

Key:
[1] = target: T1, human 5-LOX (Homo sapiens, UniProt P09917); assay: 5-LOX enzyme activity, fluorescence method (5-HPETE, H2DCFDA); assay type: biochemical; conditions: read-out: 5-LO (IC50)
T1 construct: purchased Cayman 60402; host or cells: insect cells (lysate)
T1 sequence (P09917 1-674): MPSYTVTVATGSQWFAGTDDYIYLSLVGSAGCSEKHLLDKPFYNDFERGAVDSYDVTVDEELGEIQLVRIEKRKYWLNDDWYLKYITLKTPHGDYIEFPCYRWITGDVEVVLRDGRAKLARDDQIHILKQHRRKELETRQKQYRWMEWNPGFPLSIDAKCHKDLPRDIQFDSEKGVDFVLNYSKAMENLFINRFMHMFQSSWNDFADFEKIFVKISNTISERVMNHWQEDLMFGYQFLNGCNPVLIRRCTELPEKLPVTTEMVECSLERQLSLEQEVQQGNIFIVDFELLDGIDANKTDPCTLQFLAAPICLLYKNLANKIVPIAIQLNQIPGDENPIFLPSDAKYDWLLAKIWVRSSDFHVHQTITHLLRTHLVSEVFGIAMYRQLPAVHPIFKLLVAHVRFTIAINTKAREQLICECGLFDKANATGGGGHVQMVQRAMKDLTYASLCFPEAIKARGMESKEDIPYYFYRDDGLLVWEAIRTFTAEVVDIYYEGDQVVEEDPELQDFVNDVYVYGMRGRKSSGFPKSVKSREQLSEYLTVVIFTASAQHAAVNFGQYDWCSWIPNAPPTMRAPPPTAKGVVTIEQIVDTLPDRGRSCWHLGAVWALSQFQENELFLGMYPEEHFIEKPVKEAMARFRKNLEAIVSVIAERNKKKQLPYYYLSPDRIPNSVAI
In short: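 Compound (0.5 nM to 10 uM) pre-incubated 5 min with enzyme; reaction started with ATP (100 uM final) and arachidonic acid (3 uM final). All steps at room temperature, fluorescence read-out.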

[2] = system: Rat basophilic leukemia (RBL) cells; assay: LTB4 secretion assay in RBL (rat basophilic leukemia cells); assay type: cell-based; conditions: Rattus norvegicus, RBL
In short: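 Cells seeded 2×10^4/well the day before, then pre-incubated 15 min at 37 °C in EMEM/0.5% FBS with compound (5 nM to 100 uM). Stimulation with 2.5 uM arachidonic acid plus 5 uM A23187 (final) for 10 min at 37 °C; LTB4 in supernatant quantified by EIA.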

[3] = system: Rat whole blood (RWB); assay: LTB4 secretion assay in RWB (rat whole blood); assay type: cell-based; conditions: Rattus norvegicus
Protocol: Rat blood was drawn from caudal vena cava from male Sprague Dawley rat (6-9 weeks old) in vacuette coated with sodium heparin (Greiner bio-one, Cat #455051). The blood was pooled and diluted with RPMI (WelGENE, Cat #LM 011-05) to 1:1. The diluted blood was aliquoted into 96 well plate (200 ul per well) and compounds were added in dose response to a desired concentration ranging from 2.5 nM to 50 uM. After 15 min of pre-incubation at 37° C., calcium ionophore (A23187) was added to the final concentration of 10 uM. After 10 min of further incubation at 37° C., the LTB4 production was stopped by diluting the reaction mixture with ice cold PBS (1:4 dilutions). Cells were removed by centrifugation at 1000×g, 4° C. for 10 min, and the supernatant was transferred and then the quantification of LTB4 was done with Leukotriene B4 EIA kit (Cayman, Cat #520111) as instructed.

| Structure (SMILES) | IC50 [1] [µM] | EC50 [2] [µM] | EC50 [3] [µM] |
| --- | --- | --- | --- |
| CC(Nc1ccc2[nH]c(N(C)C)nc2c1)c1ccc(Oc2ccc(OC(F)(F)F)cc2)cc1 (stereo not drawn) [Compound 127] | < 1 | < 10 | > 20 |
| Cn1c(NCc2ccc(Oc3ccc(Cl)cn3)cc2)nc2ccc(NC(C)(C)C(N)=O)cc21 [Compound 306] | < 1 | < 10 | < 10 |
| Cc1nnc(Nc2ccc3nc(NCc4ccc(Oc5ncc(Cl)cn5)cc4)n(C)c3c2)o1 [Compound 498] | > 10 | > 20 | < 10 |
| OCCNc1nc2ccc(NC3COC3)cc2n1Cc1ccc(Oc2ccc(Cl)cn2)cc1 [Compound 251] | < 1 | < 10 | < 10 |
| Cn1c(NCc2ccc(Oc3cccnc3)cc2)nc2ccc(NC3COC3)cc21 [Compound 227] | < 1 | < 10 | < 10 |
| Cn1c(NCc2ccc(COc3ccc(Cl)cn3)cc2)nc2ccc(NC3COC3)cc21 [Compound 305] | < 1 | < 10 | > 20 |
| Nc1ccc2[nH]c(NCc3cccc(Oc4ccc(Cl)cc4)c3)nc2c1 [Compound 101] | < 1 | < 10 | < 10 |
| Cn1c(NCCOc2ccc(OC(F)(F)F)c(Cl)c2)nc2ccc(N)cc21 [Compound 58] | < 1 | < 10 | > 20 |
| Cc1cc(Oc2ccc(Cl)cn2)ccc1CNc1nc2ccc(NC3COC3)cc2n1C [Compound 291] | < 1 | < 10 | 10 to 20 |
| Cn1c(NCc2ccc(Oc3ccc(Cl)cn3)cc2)nc2ccc(Nc3ccccn3)cc21 [Compound 448] | 1 to 10 | < 10 | < 10 |
| Cc1cc(Nc2ccc3nc(NCc4ccc(Oc5ncc(Cl)cn5)cc4)[nH]c3c2)n[nH]1 [Compound 470] | < 1 | < 10 | < 10 |
| Nc1ccc2[nH]c(NCc3ccc(Oc4ccc(Cl)c(Cl)c4)cc3)nc2c1 [Compound 112] | < 1 | < 10 | 10 to 20 |
| Nc1ccc2[nH]c(NCc3ccc(Oc4ccccc4)cc3)nc2c1 [Compound 80] | < 1 | < 10 | < 10 |
| Cn1nc(Nc2ccc3nc(NCc4ccc(Oc5ncc(Cl)cn5)cc4)n(C)c3c2)cc1CF [Compound 538] | < 1 | < 10 | < 10 |
| Nc1ccc2c(c1)nc(N1CCC1)n2CCOc1ccc(OC(F)(F)F)cc1 [Compound 70] | < 1 | < 10 | > 20 |
| CC(C)(O)CNc1nc2ccc(N)cc2n1Cc1ccc(Oc2ccc(Cl)cc2)cc1 [Compound 165] | < 1 | < 10 | < 10 |
| Cn1c(NCc2ccc(Oc3cnc(Cl)nc3)cc2)nc2ccc(NC3COC3)cc21 [Compound 341] | < 1 | 10 to 20 | < 10 |
| Nc1ccc2c(c1)nc(N)n2Cc1ccc(Oc2ccc(Cl)cn2)cc1 [Compound 199] | < 1 | < 10 | < 10 |
| Cn1c(NCc2cc(Cl)c(Oc3ncc(Cl)cn3)cc2Cl)nc2ccc(NC3COC3)cc21 [Compound 433] | < 1 | 10 to 20 | < 10 |
| Cn1c(NCc2ccc(Oc3ncc(OC(F)(F)F)cn3)cc2)nc2ccc(NC3COC3)cc21 [Compound 412] | < 1 | < 10 | < 10 |
| Cn1c(NCc2ccc(Oc3ncc(Cl)cn3)cc2)nc2ccc(Nc3cc[nH]n3)cc21 [Compound 450] | < 1 | < 10 | < 10 |
| Cn1c(NCc2ccc(Oc3ccc(Cl)cc3)nc2)nc2ccc(NC3COC3)cc21 [Compound 307] | < 1 | 10 to 20 | > 20 |
| Nc1ccc2c(c1)nc(N1CCCC1)n2CCOc1ccc(OC(F)(F)F)cc1 [Compound 55] | 1 to 10 | < 10 | > 20 |
| Cn1c(NCc2ccc(Oc3ccc(Cl)cn3)nc2)nc2ccc(NC3COC3)cc21 [Compound 309] | < 1 | > 20 | > 20 |
| Cn1c(NCc2ccc(Oc3ccc(Cl)nc3)cc2)nc2ccc(NC3COC3)cc21 [Compound 281] | < 1 | < 10 | < 10 |

More lines, now with the values ahead:

| IC50 [1] [µM] | EC50 [2] [µM] | EC50 [3] [µM] | Structure (SMILES) |
| --- | --- | --- | --- |
| < 1 | < 10 | > 20 | CN(C)c1nc2cc(N3CCC(Oc4ccncc4)C3)ccc2[nH]1 (stereo not drawn) [Compound 202] |
| < 1 | < 10 | 10 to 20 | CN(C)c1nc2cc(NCc3ccc(-c4ccnn4C)cc3)ccc2[nH]1 [Compound 196] |
| < 1 | < 10 | < 10 | Nc1ccc2nc(N)n(Cc3ccc(Oc4ccc(Cl)nc4)cc3)c2c1 [Compound 238] |
| < 1 | < 10 | > 20 | Nc1ccc2nc(NCc3coc(-c4ccc(Cl)cc4)n3)[nH]c2c1 [Compound 175] |
| < 1 | < 10 | < 10 | Cn1nc(C(F)F)cc1Nc1ccc2nc(NCc3ccc(Oc4ncc(Cl)cn4)cc3)n(C)c2c1 [Compound 533] |
| < 1 | > 20 | > 20 | Cn1c(NCc2ccc(C(=O)Nc3ccc(Cl)cn3)cc2)nc2ccc(NC3COC3)cc21 [Compound 303] |
| < 1 | < 10 | < 10 | Cn1nc(Nc2ccc3nc(NCc4ccc(Oc5ncc(Cl)cn5)cc4)n(C)c3c2)cc1C(F)(F)F [Compound 468] |
| 1 to 10 | < 10 | < 10 | Cn1c(NCc2ccc(Oc3ncc(Cl)cn3)cc2)nc2ccc(Nc3ccccn3)cc21 [Compound 447] |
| > 10 | < 10 | 10 to 20 | Nc1ccc2nc(N)n(Cc3ccc(Oc4ccc(OC(F)(F)F)cc4)cc3)c2c1 [Compound 245] |
| < 1 | < 10 | < 10 | CCn1c(NCc2ccc(Oc3ncc(Cl)cn3)cc2)nc2ccc(Nc3cc(C)[nH]n3)cc21 [Compound 476] |
| < 1 | < 10 | < 10 | Nc1ccc2[nH]c(NCc3ccc(Sc4ccc(Cl)cc4)cc3)nc2c1 [Compound 92] |
| < 1 | < 10 | < 10 | Cc1cc(Nc2ccc3nc(NCc4ccc(Oc5ccc(OC(F)(F)F)cn5)cc4)n(C)c3c2)n[nH]1 [Compound 496] |
| < 1 | < 10 | 10 to 20 | CC(CC(F)(F)F)Oc1ccc(CNc2nc3ccc(N)cc3[nH]2)cc1 (stereo not drawn) [Compound 172] |
| 1 to 10 | < 10 | < 10 | CCn1c(NCc2ccc(Oc3ncc(Cl)cn3)cc2)nc2ccc(Nc3cc(C(F)(F)F)n(C)n3)cc21 [Compound 504] |
| < 1 | < 10 | < 10 | Cn1c(NCc2ccc(Oc3ncc(Cl)cn3)c(Cl)c2)nc2ccc(NC3COC3)cc21 [Compound 392] |
| < 1 | 10 to 20 | > 20 | Cn1c(NCc2ccc(Oc3cc(Cl)ncn3)cc2)nc2ccc(NC3COC3)cc21 [Compound 394] |
| < 1 | < 10 | < 10 | Nc1ccc2nc(NCCOc3ccc(OC(F)(F)F)cc3)[nH]c2c1 [Compound 62] |
| < 1 | < 10 | > 20 | Cn1c(NCc2ccc(Oc3ccc(Cl)cn3)cc2Cl)nc2ccc(NC3COC3)cc21 [Compound 294] |
| < 1 | > 20 | < 10 | Cc1ccc(Oc2ccc(CNc3nc4ccc(N)cc4n3C)cc2)nn1 [Compound 311] |
| 1 to 10 | < 10 | > 20 | Nc1nc2ccc(Nc3n[nH]cc3C(=O)NC3CC3)cc2n1CCOc1ccc(OC(F)(F)F)cc1 [Compound 17] |
| < 1 | < 10 | < 10 | CCn1c(NCc2ccc(Oc3ncc(Cl)cn3)cc2)nc2ccc(Nc3n[nH]c(C)c3Cl)cc21 [Compound 512] |
